According to the NIST ThermoML archive (doi:10.1016/j.jct.2011.12.015):
Numbers after ± are expanded uncertainties.

Assays:
[1] = Molar enthalpy of transition or fusion; settings: Crystal; DSC
[2] = Crystal; DTA
[3] = molar heat capacity at constant pressure; settings: 101.33 kPa, Small sample (50 mg) DSC

O=C(O)c1ccccc1 [benzoic acid]
Settings	Molar enthalpy of transition or fusion [kcal/mol]	Normal melting temperature [°C]
[1]	4.02 ± 0.124	–
[2]	–	121.80 ± 0.5

[3]
Settings	molar heat capacity at constant pressure [J/K/mol]
281.06 K, Crystal	137.39 ± 28
287.01 K, Crystal	140.07 ± 28
293.02 K, Crystal	142.88 ± 29
299 K, Crystal	145.2 ± 29
305.01 K, Crystal	147.4 ± 30
311.02 K, Crystal	149.72 ± 30
317 K, Crystal	152.16 ± 31
323.03 K, Crystal	154.48 ± 31
329.02 K, Crystal	156.93 ± 32
335.02 K, Crystal	159.49 ± 32
341.01 K, Crystal	161.93 ± 32
347.02 K, Crystal	164.38 ± 33
353 K, Crystal	166.7 ± 33
359.01 K, Crystal	168.89 ± 34
365.01 K, Crystal	171.21 ± 34
369.32 K, Crystal	172.8 ± 35
407.4 K, Liquid	230.44 ± 46
409 K, Liquid	231.42 ± 46
410.6 K, Liquid	232.15 ± 47
413.2 K, Liquid	233.01 ± 47
414.8 K, Liquid	233.5 ± 47
416.5 K, Liquid	233.74 ± 47
418 K, Liquid	233.98 ± 47
419.6 K, Liquid	234.35 ± 47
421.2 K, Liquid	234.72 ± 47
422.8 K, Liquid	235.08 ± 47
424.4 K, Liquid	235.45 ± 47
426 K, Liquid	235.82 ± 47
427.6 K, Liquid	236.06 ± 47
429.2 K, Liquid	236.43 ± 47
430.8 K, Liquid	236.79 ± 48
432 K, Liquid	237.16 ± 48

CCCCOC(=O)c1ccc(O)cc1 [butyl 4-hydroxybenzoate]
Settings	Molar enthalpy of transition or fusion [kcal/mol]	Normal melting temperature [°C]
[1]	6.1 ± 0.177	–
[2]	–	67.34 ± 0.5

[3]
Settings	molar heat capacity at constant pressure [J/K/mol]
291.02 K, Crystal	264.15 ± 53
293.6 K, Crystal	266.09 ± 53
296.12 K, Crystal	268.23 ± 54
298.7 K, Crystal	270.36 ± 54
301.32 K, Crystal	272.5 ± 55
303.91 K, Crystal	274.64 ± 55
306.52 K, Crystal	276.58 ± 56
309.1 K, Crystal	278.72 ± 56
311.71 K, Crystal	281.05 ± 56
314.32 K, Crystal	283.18 ± 57
316.9 K, Crystal	285.32 ± 57
319.51 K, Crystal	287.65 ± 58
322.12 K, Crystal	289.79 ± 58
324.73 K, Crystal	292.31 ± 59
328.33 K, Crystal	296.2 ± 59
329.85 K, Crystal	298.33 ± 60
330.99 K, Crystal	299.89 ± 60
353.41 K, Liquid	386.9 ± 77
355.11 K, Liquid	388.45 ± 78
356.8 K, Liquid	389.04 ± 78
358.41 K, Liquid	389.81 ± 78
360.1 K, Liquid	390.4 ± 78
361.82 K, Liquid	391.17 ± 78
363.51 K, Liquid	391.76 ± 78
365.21 K, Liquid	392.53 ± 79
366.81 K, Liquid	392.92 ± 79
368.41 K, Liquid	393.7 ± 79
370.1 K, Liquid	394.09 ± 79
371.82 K, Liquid	394.67 ± 79
373.51 K, Liquid	395.25 ± 79
375.2 K, Liquid	395.83 ± 79
376.92 K, Liquid	396.42 ± 79
378.61 K, Liquid	397 ± 80
379.87 K, Liquid	397.39 ± 80
